Experimental data taken from publication PMC8466854, “Molecular Determinant of DIDS Analogs Targeting RAD51 Activity” (Molecules, 2021).
Like-named read-outs stand apart in the source and are kept apart here.

Experiments:
RAD51 [1] = molecular target: T1, RAD51 (Homo sapiens, UniProt Q06609); assay: RAD51 self-association by BS3 chemical cross-linking; type: biochemical; settings: 50 µM of drug; for Effect on oligomer/monomer migration profile (self-association of RAD51): RAD51 8.5 µM, BS3 cross-link, SDS-PAGE; for Decrease of polymerization rate (oligomer/monomer form intensity ratio): three independent experiments
T1 construct: His; made in house; host or cells: Escherichia coli BL21-DE3
T1 sequence (Q06609 1-339): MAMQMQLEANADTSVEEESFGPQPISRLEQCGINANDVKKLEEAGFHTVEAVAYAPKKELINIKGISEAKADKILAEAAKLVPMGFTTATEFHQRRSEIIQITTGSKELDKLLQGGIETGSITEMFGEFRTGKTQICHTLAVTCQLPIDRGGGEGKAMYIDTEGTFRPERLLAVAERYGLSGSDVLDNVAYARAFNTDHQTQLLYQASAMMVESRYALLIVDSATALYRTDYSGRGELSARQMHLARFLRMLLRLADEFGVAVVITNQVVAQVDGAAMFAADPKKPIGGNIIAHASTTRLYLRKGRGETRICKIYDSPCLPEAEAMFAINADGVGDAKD
Source text: The mechanism of action of these DIDS analogs molecules remains unclear, but they probably act on the protein–protein interaction site of RAD51. In order to assess their possible effect on the subunit–subunit RAD51 association, we investigated the oligomerization level of RAD51 in presence of these small molecules. By using BS3 cross-linker, we fixed the quaternary structure of RAD51 in absence or in presence of the five stilbene molecules. Oligomer and monomer forms were separated on SDS-PAGE and stained with Coomassie blue (Figure 4A). Oligomer forms include dimer, trimer, and high polymer while monomer form is well separated at 37 kDa.
Figure 4 Self-association of RAD51 is inhibited in the presence of DIDS, SITS, and DAZDS. (A) The polymerization of RAD51 was estimated by cross-link approach (see Material and Method section). (B) Oligomer and monomer forms ratio is presented as a histogram graph. Three independent experiments were performed and statistical analysis was performed using paired Student’s t-test. Statistical significance was assumed at ** p < 0.01, *** p < 0.001. Each error bar represents s.d. statistical analysis.
RAD51 at 8.5 µM was incubated with the indicated concentrations of chemical compounds for 5 min at room temperature in a buffer containing 20 mM sodium phosphate, 50 mM azidol, 1 mM MgCl2, and 1 mM ATP. The protein was cross-linked with 4.2 µM of BS3 (bis(sulfosuccinimidyl)suberate, Sigma) at room temperature for 30 min. Then the reaction was stopped by addition of Tris-HCl pH 8.1 at final concentration 33 mM for 15 min at room temperature. The sample was separated by SDS-PAGE at 10% and analyzed by Western blotting. Anti-RAD51 rabbit antibody was used as primary antibody (Sigma-Aldrich Cat# SAB2101936, RRID:AB_10607384), then secondary anti-rabbit antibody conjugated to alexafluor 680 (GAR 700: Molecular Probes Cat# A-21076, RRID:AB_2535736) was used for the detection. The quantification of monomer and cross-linked oligomers was performed by an Odyssey infrared imaging system scanner (LI-COR, Biosciences, Lincoln, NE, USA).

[2] = test system: fibroblast and prostatic cancer cells; assay: Cytotoxicity (data not shown); type: cell-based
RAD51 nucleofilament = molecular target: T2, RAD51 nucleofilament (Homo sapiens, UniProt Q06609); assay: DNA binding assay by bio-layer interferometry (BLItz), drug added after RAD51 is bound to ssDNA: nucleofilament dissociation; settings: drug added at 40 µM after association of RAD51 with ssDNA
T2 construct: His; made in house; host or cells: Escherichia coli BL21-DE3
T2 sequence (Q06609 1-339): T1 sequence (Q06609 1-339)
Description: (§1) Figure 3 DIDS derivatives modulate the RAD51 nucleofilament formation. The association and dissociation between RAD51 and ssDNA were evaluated by Blitz interferometry. RAD51 (2 µM) was pre-incubated in phosphate buffer in absence or presence of each molecule at different concentrations before the measurement. The association phase followed until 50 s while the dissociation phase was monitored until 80 or 90 s, as indicated in graphs. (A) Effect of DIDS family on the ssDNA-RAD51 association was evaluated at 40 µM concentration of each molecule including DIDS, DADS, DAZDS, DNDS, and SITS. (B) DIDS, (C) DAZDS, and (D) SITS were incubated with RAD51 at increasing concentrations of 2, 10, and 20 µM for 5 min before the measurement by BLItz approach. (E) The percent of nucleofilament formation in presence of stilbene molecule was calculated in comparison to the condition in absence of drug after 50 s. This percentage was presented in function to the increasing concentration (from 2 to 20 µM) of each small molecule. (F) RAD51 associates with ssDNA until 50 s, and then each molecule is added at 40 µM as indicated by the narrow in the graph.
To this purpose, we incubated RAD51 with ssDNA, then we added the drug, and we measured the dissociation kinetic of RAD51 nucleofilament (Figure 3F).
(§2) PolydT DNA (1 µM) is biotinylated to allow its binding to the streptavidin-coated biosensor. Two methods of evaluation are used: the former by pre-incubating RAD51 with the drug to test and the latter by adding the drug after RAD51 is bound to DNA. In the first case, 2 µM RAD51 is incubated with the drug for […] on ice, then RAD51-ssDNA binding measurement is performed (baseline phase: 10 s; association phase: 40 s; dissociation phase: 30 s). In the second case, RAD51-ssDNA binding is analyzed, and after the association phase, the drug is added to the reaction and dissociation effect is measured (baseline phase: 10 s; association phase: 50 s; dissociation phase: 40 s). For the two cases, reaction buffer is composed of Phosphate Buffer saline (PBS) and 1 mM ATP. The tip is regenerated with 50 mM NaOH during 40 s before reuse. Measures are realized on a BLItz device from ForteBio.

RAD51 [3] = molecular target: T1, RAD51; assay: DNA binding assay by bio-layer interferometry (BLItz), RAD51 pre-incubated with drug: ssDNA-RAD51 association / nucleofilament formation; settings: for inhibition at 20 µM: read-out: Inhibition of the association of RAD51 with ssDNA (reduction of nucleofilament formation); for Effect on ssDNA-RAD51 association: RAD51 2 µM pre-incubated with drug, 40 µM of each molecule (Figure 3A)
Description: We have evaluated the steps preceding D-loop formation, namely the formation of the nucleofilament of RAD51. We investigated the effect of DIDS and its derivatives on ssDNA binding and the nucleofilament formation functions of RAD51 by bio-layer interferometry. Two approaches were undertaken: (i) to determine the impact of drugs on RAD51-ssDNA binding and (ii) to evaluate the ability of drugs to dissociate RAD51 nucleofilament. Concerning the first approach, we pre-incubated RAD51 with the drug of interest for 5 min before measuring ssDNA-RAD51 binding efficiency. […] At a concentration of 20 μM, DAZDS inhibits the association of RAD51 with ssDNA by more than 80% (Figure 3C,E), while at the same concentration the SITS slightly reduces the formation of the nucleofilament by about 10–20% (Figure 3D,E).
as §1, §2

RAD51 [4] = molecular target: T1, RAD51; assay: D-loop assay (RAD51-mediated D-loop formation); type: biochemical; settings: for Effect on D-loop structure formation: increasing concentration until 100 µM
RAD51 [5] = test system: RAD51; parameters: method as in PMID 19336413; settings: absence or presence of ATP has no influence ref 20; cited from earlier work
RAD51 foci formation = test system: RAD51 foci formation; parameters: method as in earlier work; settings: leukemia cells / B cells ref 21, Muramatsu et al.; cited from earlier work
[6] = parameters: method as in PMID 18642799; settings: aqueous solution ref 30; cited from earlier work
RAD51 (Homo sapiens) = assay: BLI; settings: 1 mM ATP, RAD51 pre-incubated with DAZDS 20 uM, BLI (BLItz): PBS, 2 uM RAD51, biotinylated polydT 1 uM on streptavidin sensor, drug pre-incubation 10 min on ice (Methods; 5 min in Results), assay …
[7] = D-loop formation by RAD51, 1 to 100 µM of each molecule, three independent experiments, read-out: IC50 determination from D-loop data

inhibition at 20 µM (RAD51 [3]; 20 µM of drug, RAD51 2 µM pre-incubated, after 50 s) [%] | Effect on ssDNA-RAD51 association (RAD51 [3]) | IC50 (RAD51 [4]; [7]) [µM] | RAD51 nucleofilament formation (RAD51 [3]; from 10 µM of drug, RAD51 2 µM pre-incubated) | Compound | Effect on oligomer/monomer migration profile (self-association of RAD51) (RAD51 [1]) | Decrease of polymerization rate (oligomer/monomer form intensity ratio) (RAD51 [1]) | Cytotoxicity ([2]; cells not given, in contrast to DIDS) | Effect on nucleofilament stability (dissociation of RAD51 nucleofilament) (RAD51 nucleofilament) | Effect on D-loop structure formation (RAD51 [4]) | inhibition at 20 µM (RAD51 [3]) [%] | IC50 (RAD51 [4]) [µM] | RAD51 binding to ssDNA or dsDNA in the presence of the drug (RAD51 [5]) | Cytotoxicity ([2]; fibroblast and prostatic cancer cells, data not shown) | RAD51 foci formation (RAD51 foci formation) | Stability in aqueous solution [6] | binding signal (% inhibition of association) (RAD51 (Homo sapiens)) | IC50 (RAD51 [4]; read-out: IC50 determination from D-loop data, D-loop formation by RAD51, 1 to 100 µM of each molecule, three independent experiments) [µM]
> 80 | inhibitory effect | 41.3 |  | [N-]=[N+]=Nc1ccc(C=Cc2ccc(N=[N+]=[N-])cc2S(=O)(=O)O)c(S(=O)(=O)O)c1 [DAZDS, 4,4′-diazidostilbene-2,2′-disulfonic acid] | decrease of oligomer forms in favor of RAD51 monomer | about 40% | weak cytotoxicity | totally dissociated the structure | significant inhibitory effect |  |  |  |  |  |  |  | 
 | inhibitory effect | 0.9 | totally inhibited | O=S(=O)(O)c1cc(N=C=S)ccc1C=Cc1ccc(N=C=S)cc1S(=O)(=O)O [DIDS, 4,4′-diisothiocyanatostilbene-2,2′-disulfonic acid] | decrease of oligomer forms in favor of RAD51 monomer | about 40% |  | totally dissociated the structure | inhibits D-loop intermediate structure in a dose-dependent manner |  |  | unable to bind ssDNA or dsDNA | relatively cytotoxic | inhibit RAD51 foci formation | unstable in aqueous solution |  | 
 |  |  |  | polydT |  |  |  |  |  |  |  |  |  |  |  | > 80 | 
 |  |  |  | O=[N+]([O-])c1ccc(C=Cc2ccc([N+](=O)[O-])cc2S(=O)(=O)O)c(S(=O)(=O)O)c1 [DNDS, 4,4′-dinitrostilbene-2,2′-disulfonic acid] | no effect on the self-association of RAD51 | no effect |  | not able to dissociate the nucleofilament | no effect |  | > 100 |  |  |  |  |  | ≤ 100

Compound | inhibition at 20 µM (RAD51 [3]; 20 µM of drug, RAD51 2 µM pre-incubated, after 50 s) [%] | Effect on ssDNA-RAD51 association (RAD51 [3]) | IC50 (RAD51 [4]; [7]) [µM] | RAD51 nucleofilament formation (RAD51 [3]; from 10 µM of drug, RAD51 2 µM pre-incubated) | Effect on oligomer/monomer migration profile (self-association of RAD51) (RAD51 [1]) | Decrease of polymerization rate (oligomer/monomer form intensity ratio) (RAD51 [1]) | Cytotoxicity ([2]; cells not given, in contrast to DIDS) | Effect on nucleofilament stability (dissociation of RAD51 nucleofilament) (RAD51 nucleofilament) | Effect on D-loop structure formation (RAD51 [4]) | inhibition at 20 µM (RAD51 [3]) [%] | IC50 (RAD51 [4]) [µM] | RAD51 binding to ssDNA or dsDNA in the presence of the drug (RAD51 [5]) | Cytotoxicity ([2]; fibroblast and prostatic cancer cells, data not shown) | RAD51 foci formation (RAD51 foci formation) | Stability in aqueous solution [6] | binding signal (% inhibition of association) (RAD51 (Homo sapiens)) | IC50 (RAD51 [4]; read-out: IC50 determination from D-loop data, D-loop formation by RAD51, 1 to 100 µM of each molecule, three independent experiments) [µM]
CC(=O)Nc1ccc(C=Cc2ccc(N=C=S)cc2S(=O)(=O)O)c(S(=O)(=O)O)c1 [SITS, 4-acetamido-4′-isothiocyanatostilbene-2,2′-disulfonic acid] |  | inhibitory effect |  |  | decrease of oligomer forms in favor of RAD51 monomer | about 40% |  |  | significant inhibitory effect | 10 to 20 | 29 |  |  |  |  |  | 
Nc1ccc(C=Cc2ccc(N)cc2S(=O)(=O)O)c(S(=O)(=O)O)c1 [DADS, 4,4′-diaminostilbene-2,2′-disulfonic acid] |  |  | > 100 |  | no effect on the self-association of RAD51 | no effect |  | not able to dissociate the nucleofilament | no effect |  |  |  |  |  |  |  | 
